14 molecules from ChEMBL document CHEMBL1149919, “Inhibition of human rhinovirus 3C protease by homophthalimides” (Bioorg Med Chem Lett, 1997) can be followed below.

Some results are limits rather than exact numbers.

The target of data set [1] is T1, Human rhinovirus A protease (Human rhinovirus sp.) (UniProt Q4U254).
T1 sequence (whole entry): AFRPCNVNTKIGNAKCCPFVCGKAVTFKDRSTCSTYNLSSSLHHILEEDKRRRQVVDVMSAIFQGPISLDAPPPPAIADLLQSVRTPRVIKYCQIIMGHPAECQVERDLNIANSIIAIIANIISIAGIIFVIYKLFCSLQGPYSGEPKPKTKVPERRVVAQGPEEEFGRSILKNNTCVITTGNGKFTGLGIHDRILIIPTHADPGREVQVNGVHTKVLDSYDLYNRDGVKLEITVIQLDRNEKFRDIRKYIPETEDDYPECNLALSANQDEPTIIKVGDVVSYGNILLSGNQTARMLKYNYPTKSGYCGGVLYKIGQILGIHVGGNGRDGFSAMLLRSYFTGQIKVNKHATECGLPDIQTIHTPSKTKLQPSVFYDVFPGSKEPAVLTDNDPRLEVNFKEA
Kind of data set: Inhibition of Protease 3C of HRV-14 (human rhinovirus). Also noted: concentration or dose not given beside the values. The settings on record: Rhinovirus B; concentration not given here.

Data set [2] can be described thus: Therapeutic index was determined. To be noted: read-out: TI.
Another data set concerns HeLa. Kind of data set: Antiviral activity in a one-cycle viral replication assay against HRV-14 (human rhinovirus) infected HeLa cells. It counts as functional, cell-based.
A short description of data set [3]: Cytotoxic effect against HeLa cell line measured by XTT assay. The format is cell-based. The settings on record: human, HeLa cells; read-out: TC50 (the source's name).
Data set [4] addresses T2, Human rhinovirus A protease (Human rhinovirus sp., UniProt Q4U254).
T2 sequence (Q4U254 whole entry): T1 sequence (whole entry)
Kind of data set: The compound was tested for the inhibitory activity against HRV-14 (human rhinovirus) Protease 3C.

For the molecule `CCOC(=O)CCN1C(=O)c2ccccc2C(C(C)=O)C1=O` (stereo unspecified), in data set [1], the inhibition came to 8%.

In data set [1], `CSCCCN1C(=O)Cc2ccccc2C1=O` displayed an inhibition of 16%.

With `CS(=O)(=O)CCN1C(=O)Cc2ccccc2C1=O`, the inhibition in data set [1] turned out to be 6%.

As for `CCOC(=O)CCN1C(=O)c2ccccc2C(CC(=O)c2ccccc2)C1=O` (stereo unspecified), in data set [2], the selectivity ratio was 16.7. The figures for the IC50 (in the data set with HeLa; in data set [4]) were 6 µM and 55.3 µM, respectively. In data set [3], the CC50 was more than 100 µM. Besides, the inhibition in data set [1] came to 71%.

`C[S+]([O-])CCN1C(=O)Cc2ccccc2C1=O` (stereo unspecified) returned an inhibition in data set [1] of 19%.

In data set [1], `O=C(O)CCN1C(=O)Cc2ccccc2C1=O` had an inhibition of 0%.

In the case of `CS(=O)(=O)CCCN1C(=O)c2ccccc2C(CC(=O)c2ccccc2)C1=O` (stereo unspecified), the figures for the IC50 (with HeLa; in data set [4]) were more than 10 µM and 25 µM, respectively. Moreover, the CC50 in data set [3] was more than 100 µM. In data set [1], this molecule displayed an inhibition of 70%.

In the case of `NC(=O)CCN1C(=O)Cc2ccccc2C1=O`, in data set [1], the inhibition came to 11%.

With `CN1C(=O)c2ccccc2C(CC(=O)c2ccc(F)cc2)C1=O` (stereo unspecified), the results for the IC50 (in the data set with HeLa; in data set [4]) were more than 10 µM and 41.1 µM, respectively. In addition, the CC50 in data set [3] is more than 100 µM. In addition, the inhibition in data set [1] amounted to 72%.

`CN1C(=O)Cc2ccccc2C1=O` gave an inhibition in data set [1] of 14%.

In turn, `CCOC(=O)CCN1C(=O)Cc2ccccc2C1=O` yielded an inhibition in data set [1] of 13%.

As to `CSCCN1C(=O)Cc2ccccc2C1=O`, the inhibition in data set [1] is 13%.

In the case of `CS(=O)(=O)CCN1C(=O)c2ccccc2C(CC(=O)c2ccccc2)C1=O` (stereo unspecified), the selectivity ratio in data set [2] was found to be 8.3. Moreover, the IC50 was 8.5 µM in the data set with HeLa and 22.1 µM in data set [4]. Besides, the CC50 in data set [3] was 70.5 µM. The same molecule yielded an inhibition in data set [1] of 100%.

Regarding `CSCCCN1C(=O)c2ccccc2C(CC(=O)c2ccccc2)C1=O` (stereo unspecified), the IC50 in the data set with HeLa was more than 10 µM; in data set [4], 131 µM. Besides, the CC50 in data set [3] was 63 µM. For the same molecule, in data set [1], the inhibition came out at 35%.

The term inhibition denotes the share of the control response that was lost under treatment. Broadly, the IC50 is the point on the concentration scale where inhibition reaches its midpoint.
